{
  "source": "ChEMBL document CHEMBL1129447",
  "about": "(J Med Chem, 1996)",
  "key": {"Adenosine receptor A1 [1]": {"target": "T1, Adenosine receptor A1 (Rattus norvegicus, UniProt P25099)", "T1 sequence (P25099 whole entry)": "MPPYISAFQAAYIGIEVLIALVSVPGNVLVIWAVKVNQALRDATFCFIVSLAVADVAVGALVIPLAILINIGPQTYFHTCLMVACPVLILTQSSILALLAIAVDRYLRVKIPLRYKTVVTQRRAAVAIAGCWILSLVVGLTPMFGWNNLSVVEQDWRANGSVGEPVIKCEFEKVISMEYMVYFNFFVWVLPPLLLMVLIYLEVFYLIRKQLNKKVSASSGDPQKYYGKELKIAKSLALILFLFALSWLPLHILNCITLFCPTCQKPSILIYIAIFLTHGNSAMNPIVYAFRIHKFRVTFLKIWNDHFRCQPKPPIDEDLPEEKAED", "description": "Displacement of [3H]CHA from Adenosine A1 receptor of rat brain"}, "Adenosine receptor A2a [2]": {"target": "T2, Adenosine receptor A2a (Rattus norvegicus, UniProt P30543)", "T2 sequence (P30543 whole entry)": "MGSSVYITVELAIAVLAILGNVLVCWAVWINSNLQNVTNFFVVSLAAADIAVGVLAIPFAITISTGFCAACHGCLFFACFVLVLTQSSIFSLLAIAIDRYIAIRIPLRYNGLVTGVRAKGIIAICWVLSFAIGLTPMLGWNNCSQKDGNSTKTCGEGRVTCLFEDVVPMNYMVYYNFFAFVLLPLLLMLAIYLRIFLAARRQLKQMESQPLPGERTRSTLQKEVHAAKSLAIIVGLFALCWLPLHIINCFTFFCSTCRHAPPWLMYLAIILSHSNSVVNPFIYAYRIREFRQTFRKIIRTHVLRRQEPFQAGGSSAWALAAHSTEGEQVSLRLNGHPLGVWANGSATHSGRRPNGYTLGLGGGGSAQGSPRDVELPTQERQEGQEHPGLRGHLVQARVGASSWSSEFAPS", "description": "Displacement of [3H]-CGS- 51680 from Adenosine A2A receptor of rat striatum."}, "Adenosine receptor A1 [3]": {"target": "T1, Adenosine receptor A1", "assay": "Adenosine A1 receptor mediated negative chronotropic activity in spontaneously beating rat atria", "format": "functional"}, "Adenosine receptor A2a [4]": {"target": "T2, Adenosine receptor A2a", "remark": "listed apart in the source", "description": "Vasorelaxation as Adenosine A2A receptor activity in rat aorta"}},
  "data": [
    {"smiles": "CCCC/C=C/c1nc(N)c2ncn([C@@H]3O[C@H](CO)[C@@H](O)[C@H]3O)c2n1", "values": [
      {"measurement": "Ki", "setting": "Adenosine receptor A1 [1]", "value": 332, "unit": "nM"},
      {"measurement": "Ki", "setting": "Adenosine receptor A2a [2]", "value": 14, "unit": "nM"}
    ]},
    {"smiles": "CCCCC#Cc1nc(N)c2ncn([C@@H]3O[C@H](C(=O)NCC)[C@@H](O)[C@H]3O)c2n1", "values": [
      {"measurement": "EC50", "setting": "Adenosine receptor A1 [3]", "value": "> 1", "unit": "nM"}
    ]},
    {"smiles": "CCCC/C=C/c1nc(N)c2ncn([C@@H]3O[C@H](C(=O)NCC)[C@@H](O)[C@H]3O)c2n1", "values": [
      {"measurement": "EC50", "setting": "Adenosine receptor A1 [3]", "value": "> 1", "unit": "nM"},
      {"measurement": "Ki", "setting": "Adenosine receptor A1 [1]", "value": 251, "unit": "nM"},
      {"measurement": "Ki", "setting": "Adenosine receptor A2a [2]", "value": 1.6, "unit": "nM"},
      {"measurement": "EC50", "setting": "Adenosine receptor A2a [4]", "value": 594, "unit": "nM"}
    ]},
    {"smiles": "CCCCCCc1nc(N)c2ncn(C3O[C@H](CO)[C@@H](O)[C@H]3O)c2n1", "note": "(stereo partly drawn)", "values": [
      {"measurement": "EC50", "setting": "Adenosine receptor A1 [3]", "value": "> 1", "unit": "nM"},
      {"measurement": "Ki", "setting": "Adenosine receptor A1 [1]", "value": "> 1", "unit": "nM"},
      {"measurement": "Ki", "setting": "Adenosine receptor A2a [2]", "value": "> 1", "unit": "nM"}
    ]},
    {"smiles": "CCNC(=O)[C@H]1O[C@@H](n2cnc3c(N)nc(/C=C\\CCCc4ccccc4)nc32)[C@H](O)[C@@H]1O", "values": [
      {"measurement": "EC50", "setting": "Adenosine receptor A1 [3]", "value": "> 1", "unit": "nM"},
      {"measurement": "Ki", "setting": "Adenosine receptor A1 [1]", "value": "> 1", "unit": "nM"},
      {"measurement": "Ki", "setting": "Adenosine receptor A2a [2]", "value": 51, "unit": "nM"},
      {"measurement": "EC50", "setting": "Adenosine receptor A2a [4]", "value": "> 1", "unit": "nM"}
    ]},
    {"smiles": "CCCC/C=C\\c1nc(N)c2ncn(C3O[C@H](C(=O)NCC)[C@@H](O)[C@H]3O)c2n1", "note": "(stereo partly drawn)", "values": [
      {"measurement": "EC50", "setting": "Adenosine receptor A1 [3]", "value": "> 1", "unit": "nM"},
      {"measurement": "Ki", "setting": "Adenosine receptor A1 [1]", "value": 951, "unit": "nM"},
      {"measurement": "Ki", "setting": "Adenosine receptor A2a [2]", "value": 70, "unit": "nM"},
      {"measurement": "EC50", "setting": "Adenosine receptor A2a [4]", "value": 676, "unit": "nM"}
    ]},
    {"smiles": "CCNC(=O)[C@H]1O[C@@H](n2cnc3c(N)nc(C#Cc4ccccc4)nc32)[C@H](O)[C@@H]1O", "values": [
      {"measurement": "EC50", "setting": "Adenosine receptor A1 [3]", "value": "> 1", "unit": "nM"},
      {"measurement": "EC50", "setting": "Adenosine receptor A2a [4]", "value": "> 1", "unit": "nM"}
    ]},
    {"smiles": "CCNC(=O)[C@H]1O[C@@H](n2cnc3c(N)nc(/C=C/c4ccccc4)nc32)[C@H](O)[C@@H]1O", "values": [
      {"measurement": "EC50", "setting": "Adenosine receptor A1 [3]", "value": 420, "unit": "nM"},
      {"measurement": "Ki", "setting": "Adenosine receptor A1 [1]", "value": 117, "unit": "nM"},
      {"measurement": "Ki", "setting": "Adenosine receptor A2a [2]", "value": 234, "unit": "nM"},
      {"measurement": "EC50", "setting": "Adenosine receptor A2a [4]", "value": 194, "unit": "nM"}
    ]},
    {"smiles": "CCNC(=O)[C@H]1O[C@@H](n2cnc3c(N)nc(C#CCCCc4ccccc4)nc32)[C@H](O)[C@@H]1O", "values": [
      {"measurement": "EC50", "setting": "Adenosine receptor A1 [3]", "value": "> 1", "unit": "nM"}
    ]},
    {"smiles": "CCNC(=O)[C@H]1O[C@@H](n2cnc3c(N)nc(/C=C/CCCc4ccccc4)nc32)[C@H](O)[C@@H]1O", "values": [
      {"measurement": "EC50", "setting": "Adenosine receptor A1 [3]", "value": "> 1", "unit": "nM"},
      {"measurement": "Ki", "setting": "Adenosine receptor A1 [1]", "value": 1020, "unit": "nM"},
      {"measurement": "Ki", "setting": "Adenosine receptor A2a [2]", "value": 3.5, "unit": "nM"},
      {"measurement": "EC50", "setting": "Adenosine receptor A2a [4]", "value": 576, "unit": "nM"}
    ]},
    {"smiles": "CCCCCCc1nc(N)c2ncn([C@@H]3O[C@H](C(=O)NCC)[C@@H](O)[C@H]3O)c2n1", "values": [
      {"measurement": "EC50", "setting": "Adenosine receptor A1 [3]", "value": "> 1", "unit": "nM"},
      {"measurement": "Ki", "setting": "Adenosine receptor A1 [1]", "value": "> 1", "unit": "nM"},
      {"measurement": "Ki", "setting": "Adenosine receptor A2a [2]", "value": 136, "unit": "nM"},
      {"measurement": "EC50", "setting": "Adenosine receptor A2a [4]", "value": 1, "unit": "nM"}
    ]},
    {"smiles": "CCCCC#Cc1nc(N)c2ncn([C@@H]3O[C@H](CO)[C@@H](O)[C@H]3O)c2n1", "values": [
      {"measurement": "EC50", "setting": "Adenosine receptor A1 [3]", "value": "> 1", "unit": "nM"},
      {"measurement": "Ki", "setting": "Adenosine receptor A1 [1]", "value": 98, "unit": "nM"}
    ]},
    {"smiles": "CCCC/C=C\\c1nc(N)c2ncn([C@@H]3O[C@H](CO)[C@@H](O)[C@H]3O)c2n1", "values": [
      {"measurement": "EC50", "setting": "Adenosine receptor A1 [3]", "value": "> 1", "unit": "nM"},
      {"measurement": "Ki", "setting": "Adenosine receptor A1 [1]", "value": 618, "unit": "nM"},
      {"measurement": "Ki", "setting": "Adenosine receptor A2a [2]", "value": 757, "unit": "nM"}
    ]}
  ]
}
